Values quoted from earlier work in patent US20250127711A1, “COMPOSITION AND METHOD FOR TREATING FUNGAL SKIN CONDITIONS AND INFLAMMATION” (CMPD Licensing, LLC, priority 2016, published 2025).

Key:
[1] = test system: mineralocorticoid activity

Row | Structure (SMILES) | glucocorticoid activity (glucocorticoid activity) | mineralocorticoid activity [1] | solubility in ethanol (ethanol) | solubility in water (water)
1 | C[C@H]1C[C@H]2[C@@H]3CCC4=CC(=O)C=C[C@]4(C)[C@@]3(F)[C@@H](O)C[C@]2(C)[C@@]1(O)C(=O)CCl [Clobetasol] | high degree | slight degree |  | 
2 | CC(=O)OCC(=O)[C@@]12OC(C)(C)O[C@@H]1C[C@H]1[C@@H]3C[C@H](F)C4=CC(=O)C=C[C@]4(C)[C@@]3(F)[C@@H](O)C[C@@]12C [Fluocinonide] |  |  | slightly soluble | practically insoluble
